Laboratory results reported in ChEMBL document CHEMBL4138043, “Quinoides and VEGFR2 TKIs influence the fate of hepatocellular carcinoma and its cancer stem cells” (Medchemcomm, 2017).

How the values were obtained:
Huh-7 [1] = experiment: Disruption of cancer stem cell subpopulation of human HuH7 cells assessed as aggressiveness factor at IC100 after 72 hrs by flow cytometric method; assay type: functional
[2] = target: Vascular endothelial growth factor receptor 2 (Homo sapiens, UniProt P35968); experiment: Inhibition of N-terminal GST-fused human VEGFR2 C-terminal fragment expressed in Sf9 insect cells using poly(Glu:Tyr) 4:1 as substrate; assay type: cell-based
Chain of Vascular endothelial growth factor receptor 2 (P35968 whole entry, the tested form may be a part): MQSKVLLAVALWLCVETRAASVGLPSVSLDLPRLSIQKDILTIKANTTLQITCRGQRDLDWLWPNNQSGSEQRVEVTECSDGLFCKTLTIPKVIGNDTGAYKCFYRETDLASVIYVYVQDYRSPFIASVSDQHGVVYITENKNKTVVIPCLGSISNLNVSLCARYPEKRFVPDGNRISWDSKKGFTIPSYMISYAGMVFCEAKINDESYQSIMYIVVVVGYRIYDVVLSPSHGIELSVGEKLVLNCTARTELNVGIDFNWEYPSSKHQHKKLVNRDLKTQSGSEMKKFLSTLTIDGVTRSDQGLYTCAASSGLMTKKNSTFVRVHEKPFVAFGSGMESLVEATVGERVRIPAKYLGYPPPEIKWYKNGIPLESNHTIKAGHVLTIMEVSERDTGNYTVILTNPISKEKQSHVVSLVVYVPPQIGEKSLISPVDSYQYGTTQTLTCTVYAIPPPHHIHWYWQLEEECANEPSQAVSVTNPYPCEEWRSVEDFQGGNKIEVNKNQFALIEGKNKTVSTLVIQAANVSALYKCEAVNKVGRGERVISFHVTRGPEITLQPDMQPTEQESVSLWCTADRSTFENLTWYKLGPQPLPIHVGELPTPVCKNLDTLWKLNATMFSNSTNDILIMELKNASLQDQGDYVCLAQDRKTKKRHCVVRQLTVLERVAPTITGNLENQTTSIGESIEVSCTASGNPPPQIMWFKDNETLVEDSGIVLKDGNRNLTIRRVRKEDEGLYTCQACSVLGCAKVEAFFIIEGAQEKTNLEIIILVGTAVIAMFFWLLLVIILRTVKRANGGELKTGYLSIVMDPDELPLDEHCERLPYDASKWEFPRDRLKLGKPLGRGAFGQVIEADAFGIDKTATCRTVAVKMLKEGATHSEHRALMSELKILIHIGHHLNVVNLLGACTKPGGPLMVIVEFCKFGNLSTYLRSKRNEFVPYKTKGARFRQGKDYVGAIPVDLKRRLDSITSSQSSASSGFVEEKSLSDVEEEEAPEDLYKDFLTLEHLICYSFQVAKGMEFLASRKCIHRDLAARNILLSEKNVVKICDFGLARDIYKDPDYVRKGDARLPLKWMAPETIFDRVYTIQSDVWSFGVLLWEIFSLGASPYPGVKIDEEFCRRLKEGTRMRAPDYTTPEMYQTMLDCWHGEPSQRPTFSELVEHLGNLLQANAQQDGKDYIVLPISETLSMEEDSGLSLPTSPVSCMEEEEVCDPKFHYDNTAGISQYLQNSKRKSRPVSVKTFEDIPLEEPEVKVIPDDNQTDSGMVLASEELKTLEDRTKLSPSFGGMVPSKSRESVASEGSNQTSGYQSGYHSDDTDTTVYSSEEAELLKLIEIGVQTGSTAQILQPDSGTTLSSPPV

Hep 3B2 [3] = experiment: Cytotoxicity against human Hep3B cells assessed as growth inhibition after 72 hrs by SRB assay; assay type: functional, cell-based
Huh-7 [4] = experiment: Disruption of cancer stem cell subpopulation of human HuH7 cells assessed as effect on EpCAM levels at IC100 after 72 hrs by flow cytometric method (reference value: 13.7 to 33%); assay type: functional
Mahlavu [5] = experiment: Cytotoxicity against human Mahlavu cells assessed as growth inhibition after 72 hrs by SRB assay; assay type: functional, cell-based
Huh-7 [6] = experiment: Cytotoxicity against human HuH7 cells assessed as growth inhibition after 72 hrs by SRB assay; assay type: functional, cell-based
Huh-7 [7] = experiment: Disruption of cancer stem cell subpopulation of human HuH7 cells assessed as effect on CD133 levels at IC100 after 72 hrs by flow cytometric method (reference value: 0 to 0.6%); assay type: functional
Hep 3B2 [8] = experiment: Disruption of cancer stem cell subpopulation of human Hep3B cells assessed as aggressiveness factor at IC100 after 72 hrs by flow cytometric method; assay type: functional
[9] = target: Focal adhesion kinase 1 (Homo sapiens) (UniProt Q05397); experiment: Inhibition of FAK phosphorylation at Y397 in human bone marrow mesenchymal stem cells at 5 uM after 1 hr by immunoblot method relative to control
Chain of Focal adhesion kinase 1 (Homo sapiens) (Q05397 2-1052 limits assumed): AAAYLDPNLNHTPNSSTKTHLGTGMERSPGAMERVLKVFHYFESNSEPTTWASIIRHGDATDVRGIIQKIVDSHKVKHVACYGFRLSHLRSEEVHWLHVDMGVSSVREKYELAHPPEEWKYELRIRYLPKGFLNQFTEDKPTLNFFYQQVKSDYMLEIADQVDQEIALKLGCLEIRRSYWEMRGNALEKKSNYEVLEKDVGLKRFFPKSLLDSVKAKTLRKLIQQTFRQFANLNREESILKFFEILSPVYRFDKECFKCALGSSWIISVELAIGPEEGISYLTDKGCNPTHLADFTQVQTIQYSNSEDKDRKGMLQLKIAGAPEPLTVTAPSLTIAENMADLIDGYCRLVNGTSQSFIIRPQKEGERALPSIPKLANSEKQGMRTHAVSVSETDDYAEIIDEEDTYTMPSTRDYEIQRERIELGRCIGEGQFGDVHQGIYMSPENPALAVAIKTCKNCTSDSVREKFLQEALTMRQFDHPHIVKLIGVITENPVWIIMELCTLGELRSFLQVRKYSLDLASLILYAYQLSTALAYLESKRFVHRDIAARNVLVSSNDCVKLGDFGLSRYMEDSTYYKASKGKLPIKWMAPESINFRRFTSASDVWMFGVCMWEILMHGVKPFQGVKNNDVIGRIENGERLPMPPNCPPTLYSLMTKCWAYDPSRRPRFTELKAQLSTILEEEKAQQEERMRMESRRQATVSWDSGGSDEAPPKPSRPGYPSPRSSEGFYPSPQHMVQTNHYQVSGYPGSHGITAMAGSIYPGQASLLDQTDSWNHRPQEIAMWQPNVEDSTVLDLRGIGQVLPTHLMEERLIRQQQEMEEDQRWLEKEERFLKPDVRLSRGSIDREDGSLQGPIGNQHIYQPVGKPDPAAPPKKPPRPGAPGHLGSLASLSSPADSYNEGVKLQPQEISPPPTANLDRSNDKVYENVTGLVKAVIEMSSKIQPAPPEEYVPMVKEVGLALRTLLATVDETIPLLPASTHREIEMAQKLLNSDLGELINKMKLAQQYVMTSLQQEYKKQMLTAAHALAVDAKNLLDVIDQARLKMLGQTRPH

[10] = target: Focal adhesion kinase 1 (Homo sapiens) (UniProt Q05397); experiment: Inhibition of FAK phosphorylation at Y397 in human bone marrow mesenchymal stem cells at 1 uM after 1 hr by immunoblot method relative to control
Mahlavu [11] = experiment: Disruption of cancer stem cell subpopulation of human Mahlavu cells assessed as aggressiveness factor at IC100 after 72 hrs by flow cytometric method; assay type: functional
SNU-475 [12] = experiment: Disruption of cancer stem cell subpopulation of human SNU475 cells assessed as aggressiveness factor at IC100 after 72 hrs by flow cytometric method; assay type: functional
Hep 3B2 [13] = experiment: Disruption of cancer stem cell subpopulation of human Hep3B cells assessed as effect on EpCAM levels at IC100 after 72 hrs by flow cytometric method (reference value: 0 to 0.6%); assay type: functional
SNU-475 [14] = experiment: Disruption of cancer stem cell subpopulation of human SNU475 cells assessed as effect on CD90 levels at IC100 after 72 hrs by flow cytometric method (reference value: 0.2%); assay type: functional
Mahlavu [15] = experiment: Disruption of cancer stem cell subpopulation of human Mahlavu cells assessed as effect on CD90 levels at IC100 after 72 hrs by flow cytometric method (reference value: 0.6%); assay type: functional
SNU-475 [16] = experiment: Cytotoxicity against human SNU475 cells assessed as growth inhibition after 72 hrs by SRB assay; assay type: functional, cell-based
Hep 3B2 [17] = experiment: Disruption of cancer stem cell subpopulation of human Hep3B cells assessed as effect on CD133 levels at IC100 after 72 hrs by flow cytometric method (reference value: 0 to 0.6%); assay type: functional
[18] = Homo sapiens, Hep3B, 72 h, read-out: IC50
[19] = Homo sapiens, Mahlavu, 72 h, read-out: IC50
[20] = Homo sapiens, Huh-7, 72 h, read-out: IC50
[21] = Homo sapiens, SNU-475, 72 h, read-out: IC50

Structure (SMILES)	fold change (FC) (Huh-7 [1])	IC50 (Hep 3B2 [3]; [18])	Activity (Huh-7 [4])	IC50 (Mahlavu [5]; [19])	IC50 (Huh-7 [6]; [20])	Activity (Huh-7 [7])	fold change (FC) (Hep 3B2 [8])	fold change (FC) (Mahlavu [11])	fold change (FC) (SNU-475 [12])	Activity (Hep 3B2 [13])	Activity (SNU-475 [14])	Activity (Mahlavu [15])	IC50 (SNU-475 [16]; [21])	Activity (Hep 3B2 [17])	also measured
CCS(=O)(=O)c1ccc(OC)c(Nc2nc(-c3cccc(-c4ccccn4)c3)co2)c1	1.7	0.9 µM	23.7%	1.1 µM	0.4 µM	0.1%	2.6	–	–	–	–	–	–	–	IC50 [2]: 564 µM
CO[C@H]1[C@@H](OC)C[C@H](C)[C@@H](OC)C2=CC(=O)C=C(NC(=O)/C(C)=C/C=C\[C@H](OC)[C@@H](OC(N)=O)/C(C)=C/[C@@H]1C)C2=O	–	–	–	–	–	–	–	–	–	–	–	–	–	–	inhibition [9]: 78%; inhibition [10]: 61%
CCOC1=CC(=O)C(C)=C([S@@+]([O-])c2ccc(C)cc2)C1=O	1.2	12 µM	40.6%	18.3 µM	7 µM	0.3%	1	1.7	0.5	80.1%	0.1%	1%	5.5 µM	0%	–
Cc1ccc([S@+]([O-])C2=C(Cl)C(=O)C=CC2=O)cc1	0.7	–	24.7%	–	–	0.2%	1	0.8	1.5	76%	0.3%	0.5%	–	0%	IC50 (Hep 3B2 [3]; hep 3b2): Not Active; IC50 (Mahlavu [5]; mahlavu): Not Active; IC50 (Huh-7 [6]; huh-7): Not Active; IC50 (SNU-475 [16]; snu-475): Not Active
CCS(=O)(=O)c1ccc(OC)c(Nc2ncc(-c3cc(-c4ccccn4)cc(-c4ccccn4)c3)o2)c1	2.3	2 µM	31.6%	3 µM	2.8 µM	0.4%	2.9	–	–	–	–	–	–	–	–
COC1=CC(=O)C(C)=C([S+]([O-])c2ccc(C)cc2)C1=O (racemic)	1.3	4.3 µM	41.3%	11.6 µM	5.5 µM	0.8%	1.1	2.2	2	84.9%	0.4%	1.3%	6.1 µM	0%	–
Cc1ccc([S@+]([O-])C2=CC(=O)C=CC2=O)cc1	0.9	17.4 µM	30.6%	31.3 µM	20 µM	0.2%	1.1	0.3	0	81.4%	0%	0.2%	0.3 µM	0%	–
CNC(=O)c1cc(Oc2ccc(NC(=O)Nc3ccc(Cl)c(C(F)(F)F)c3)cc2)ccn1.Cc1ccc(S(=O)(=O)O)cc1 [SORAFENIB TOSYLATE]	–	1.5 µM	31.8%	0.7 µM	1.6 µM	0.2%	–	–	–	–	–	–	–	–	–
C[C@H](NC(=O)Cc1cc(F)cc(F)c1)C(=O)N[C@H](C(=O)OC(C)(C)C)c1ccccc1	0.8	5 µM	10.2 - 26.7%	5 µM	5 µM	–	0.7	0.2	0.5	68.8%	0.1%	0.1%	0.6 µM	0%	–
COC1=CC(=O)C([S@@+]([O-])c2ccc(C)cc2)=CC1=O	0.9	9.9 µM	29.1%	11.3 µM	10.6 µM	0.3%	1.1	2.3	2	84.7%	0.4%	1.4%	9 µM	0%	–
CCS(=O)(=O)c1ccc(OC)c(Nc2ncc(-c3cccc(-c4ccccn4)c3)o2)c1	1.7	0.7 µM	23.9%	1.2 µM	1.5 µM	0.1%	1.7	–	–	–	–	–	–	–	–
CCS(=O)(=O)c1ccc(OC)c(Nc2ncc(-c3cccc(-c4cc[nH]c4)c3)o2)c1	2.3	2.1 µM	32.1%	0.8 µM	1.7 µM	0.9%	2.1	–	–	–	–	–	–	–	IC50 [2]: 0.018 µM
COC1=CC(=O)C(C)=C([S@@+]([O-])c2ccc(C)cc2)C1=O	1.1	5.5 µM	35.8%	14.5 µM	8 µM	0.5%	1.1	1.3	0.5	87.8%	0.1%	0.8%	10.5 µM	0%	–
